Reference: patent publication US8242274B2, “Triazolopyridine kinase inhibitors useful for the treatment of degenerative and inflammatory diseases” (Galapagos NV, priority 2008, dated 2012)

Key:
[1] = Microsomal stability, rat; type: in vitro ADME; settings: rat liver microsomes, 3 μM compound, 37° C.
Protocol: A 10 mM stock solution of compound in DMSO was diluted 1000 fold in a 182 mM phosphate buffer pH 7.4 in a 96 deep well plate (Greiner, Cat no. 780285) and pre-incubated at 37° C.
40 μL of deionised water was added to a well of a polypropylene Matrix 2D barcode labelled storage tube (Thermo Scientific) and pre-incubated at 37° C.
A Glucose-6-phosphate-dehydrogenase (G6PDH) working stock solution was prepared in 182 mM phosphate buffer pH7.4 and placed on ice before use. A co-factor containing MgCl2, glucose-6-phosphate and NADP+ was prepared in deionised water and placed on ice before use.
A final working solution containing liver microsomes (Xenotech) of a species of interest (human, mouse, rat, dog), previously described G6PDH and co-factors was prepared and this mix was incubated for no longer than 20 minutes at room temperature.
30 μL of the pre-heated compound dilution was added to 40 μL of pre-heated water in the Matrix tubes and 30 μL of the microsomal mix was added. Final reaction concentrations were 3 μM compound, 1 mg microsomes, 0.4 U/mL GDPDH, 3.3 mM MgCl2, 3.3 mM glucose-6-phosphate and 1.3 mM NADP+.
To measure percentage remaining of compound at time zero MeOH or ACN was added (1:1) to the well before adding the microsomal mix. The plates were sealed with Matrix Sepra Seals™ (Matrix, Cat. No. 4464) and shaken for a few seconds ensure complete mixing of all components.
The samples which were not stopped are incubated at 37° C., 300 rpm and after 1 hour of incubation the reaction was stopped with MeOH or ACN (1:1).
After stopping the reaction the samples were mixed and placed on ice for 30 min to precipitate the proteins. The plates were then centrifuged 30 min at 1200 rcf at 4° C. and the supernatant was transferred to a 96 v-bottom PP plate (Greiner, 651201) for analysis on LCMS.
These plates were sealed with sealing mats (MA96RD-04S) of www.kinesis.co.uk and samples were measured at room temperature on LCMS (ZQ 1525 from Waters) under optimized conditions using Quanoptimize to determine the appropriate mass of the parent molecule.
The samples were analyzed on LCMS with a flow rate of 1 mL/min. Solvent A was 15 mM ammonia and solvent B was methanol or acetonitrile, depending on the stop solution used. The samples were run under positive ion spray on an XBridge C18 […] (2.1×30 mm) column, from Waters.
Peak area from the parent compound at time 0 was considered to be 100% remaining. The percentage remaining after 1 hour incubation was calculated from time 0 and was calculated as the percentage remaining. The solubility of the compound in the final test concentration in buffer is inspected by microscope and results are reported.
The data on microsomal stability are expressed as a percentage of the total amount of compound remaining after 60 minutes.

[2] = target: T1, Recombinant human JAK1 catalytic domain (Homo sapiens, UniProt P23458); experiment: JAK1 inhibition assay; type: biochemical; settings: semi-quantitative score
T1 construct: Recombinant human JAK1 catalytic domain (amino acids 850-1154; catalog number 08-144); purchased Carna Biosciences 08-144
Protocol: Recombinant human JAK1 catalytic domain (amino acids 850-1154; catalog number 08-144) was purchased from Carna Biosciences. 10 ng of JAK1 was incubated with 12.5 μg polyGT substrate (Sigma catalog number P0275) in kinase reaction buffer (15 mM Tris-HCl pH 7.5, 1 mM DTT, 0.01% Tween-20, 10 mM MgCl2, 2 μM non-radioactive ATP, 0.25 μCi 33P-gamma-ATP (GE Healthcare, catalog number AH9968) final concentrations) with or without 5 μL containing test compound or vehicle (DMSO, 1% final concentration), in a total volume of 25 μL, in a polypropylene 96-well plate (Greiner, V-bottom). After 45 min at 30° C., reactions were stopped by adding of 25 μL/well of 150 mM phosphoric acid. All of the terminated kinase reaction was transferred to prewashed (75 mM phosphoric acid) 96 well filter plates (Perkin Elmer catalog number 6005177) using a cell harvester (Perkin Elmer). Plates were washed 6 times with 300 μL per well of a 75 mM phosphoric acid solution and the bottom of the plates was sealed. 40 μL/well of Microscint-20 was added, the top of the plates was sealed and readout was performed using the Topcount (Perkin Elmer). Kinase activity was calculated by subtracting counts per minute (cpm) obtained in the presence of a positive control inhibitor (10 μM staurosporine) from cpm obtained in the presence of vehicle. The ability of a test compound to inhibit this activity was determined as: Percentage inhibition=((cpm determined for sample with test compound present−cpm determined for sample with positive control inhibitor)divided by(cpm determined in the presence of vehicle−cpm determined for sample with positive control inhibitor))*100%.
(§1) Dose dilution series were prepared for the compounds enabling the testing of dose-response effects in the JAK1 assay and the calculation of the IC50 for each compound. Each compound was routinely tested at concentration of 20 μM followed by a 1/3 serial dilution, 8 points (20 μM-6.67 μM-2.22 μM-740 nM-247 nM-82 nM-27 nM-9 nM) in a final concentration of 1% DMSO.

[3] = target: T2, Recombinant human JAK2 catalytic domain (Homo sapiens, UniProt O60674); experiment: JAK2 inhibition assay; type: biochemical; settings: semi-quantitative score
T2 construct: Recombinant human JAK2 catalytic domain (amino acids 808-1132; catalog number PV4210); purchased Invitrogen PV4210
Protocol: Recombinant human JAK2 catalytic domain (amino acids 808-1132; catalog number PV4210) was purchased from Invitrogen. 0.025 mU of JAK2 was incubated with 2.5 μg polyGT substrate (Sigma catalog number P0275) in kinase reaction buffer (5 mM MOPS pH 7.5, 9 mM MgAc, 0.3 mM EDTA, 0.06% Brij and 0.6 mM DTT, 1 μM non-radioactive ATP, 0.25 μCi 33P-gamma-ATP (GE Healthcare, catalog number AH9968) final concentrations) with or without 5 μL containing test compound or vehicle (DMSO, 1% final concentration), in a total volume of 25 μL, in a polypropylene 96-well plate (Greiner, V-bottom). After 90 min at 30° C., reactions were stopped by adding of 25 μL/well of 150 mM phosphoric acid. All of the terminated kinase reaction was transferred to prewashed (75 mM phosphoric acid) 96 well filter plates (Perkin Elmer catalog number 6005177) using a cell harvester (Perkin Elmer). Plates were washed 6 times with 300 μL per well of a 75 mM phosphoric acid solution and the bottom of the plates was sealed. 40 μL/well of Microscint-20 was added, the top of the plates was sealed and readout was performed using the Topcount (Perkin Elmer). Kinase activity was calculated by subtracting counts per minute (cpm) obtained in the presence of a positive control inhibitor (10 μM staurosporine) from cpm obtained in the presence of vehicle. The ability of a test compound to inhibit this activity was determined as: Percentage inhibition=((cpm determined for sample with test compound present−cpm determined for sample with positive control inhibitor) divided by (cpm determined in the presence of vehicle−cpm determined for sample with positive control inhibitor))*100%.
as §1, with “JAK2” for “JAK1”

T1 sequence (P23458 850-1154): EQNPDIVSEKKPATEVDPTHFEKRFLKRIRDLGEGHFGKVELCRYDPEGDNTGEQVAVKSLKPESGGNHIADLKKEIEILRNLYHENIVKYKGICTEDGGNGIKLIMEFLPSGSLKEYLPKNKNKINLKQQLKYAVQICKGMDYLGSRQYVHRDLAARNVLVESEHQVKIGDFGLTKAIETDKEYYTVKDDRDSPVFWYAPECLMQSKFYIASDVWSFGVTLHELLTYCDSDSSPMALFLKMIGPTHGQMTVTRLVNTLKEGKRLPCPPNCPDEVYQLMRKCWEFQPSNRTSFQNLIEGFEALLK
T2 sequence (O60674 808-1132): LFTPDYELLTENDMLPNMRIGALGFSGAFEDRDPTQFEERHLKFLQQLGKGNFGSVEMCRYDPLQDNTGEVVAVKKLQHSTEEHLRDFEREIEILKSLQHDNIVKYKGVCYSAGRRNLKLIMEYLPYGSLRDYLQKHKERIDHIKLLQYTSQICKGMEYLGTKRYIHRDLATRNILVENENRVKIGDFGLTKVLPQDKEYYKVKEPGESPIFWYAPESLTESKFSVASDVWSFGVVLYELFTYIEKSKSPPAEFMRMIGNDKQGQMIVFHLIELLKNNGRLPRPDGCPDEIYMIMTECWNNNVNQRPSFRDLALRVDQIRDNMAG

| Structure (SMILES) | Microsomal stability Rat (%), compound remaining after 60 minutes [1] [%] | IC50 [2] [nM] | IC50 [3] [nM] |
| --- | --- | --- | --- |
| O=C(Nc1nc2cccc(-c3ccc(OCc4ccc(C(F)(F)F)nc4)cc3)n2n1)C1CC1 [Compound 78, N-(5-(4-((6-(trifluoromethyl)pyridin-3-yl)methoxy)phenyl)-[1,2,4]triazolo[1,5-a]pyridin-2-yl)cyclopropanecarboxamide] | 93.85 | 0.1 to 100 | 1 to 100 |
| N#Cc1ccc(COc2ccc(-c3cccc4nc(NC(=O)C5CC5)nn34)cc2)cn1 [Compound 176, N-(5-(4-((6-cyanopyridin-3-yl)methoxy)phenyl)-[1,2,4]triazolo[1,5-a]pyridin-2-yl)cyclopropanecarboxamide] | 90.21 | 0.1 to 100 | 1 to 100 |
| CC(=O)Nc1ccc(COc2ccc(-c3cccc4nc(NC(=O)C5CC5)nn34)cc2)cc1 [Compound 92, N-(5-(4-(4-acetamidobenzyloxy)phenyl)-[1,2,4]triazolo[1,5-a]pyridin-2-yl)cyclopropanecarboxamide] | 23.6 | 0.1 to 100 |  |
| O=C(Nc1nc2cccc(-c3ccc(NCc4ccccc4)cc3)n2n1)C1CC1 [Compound 72, N-(5-(4-(benzylamino)phenyl)-[1,2,4]triazolo[1,5-a]pyridin-2-yl)cyclopropanecarboxamide] | 2.2 | 0.1 to 100 | 1 to 100 |
| O=C(Nc1nc2cccc(-c3ccc(OCc4ccccc4)nc3)n2n1)C1CC1 [Compound 57, Cyclopropanecarboxylic acid [5-(6-benzyloxy-pyridin-3-yl)-[1,2,4]triazolo[1,5-a]pyridin-2-yl]-amide] | 34.5 | 0.1 to 100 | 1 to 100 |
| O=C(Nc1nc2cccc(-c3ccc(OCc4ccccc4)cc3)n2n1)C1CC1 [Compound 12, N-(5-(4-(benzyloxy)phenyl)-[1,2,4]triazolo[1,5-a]pyridin-2-yl)cyclopropanecarboxamide] | 94 | 0.1 to 100 | 1 to 100 |
| O=C(Nc1nc2cccc(-c3ccc(OCc4cccnc4)cc3)n2n1)C1CC1 [Compound 36, N-(5-(4-(pyridin-3-ylmethoxy)phenyl)-[1,2,4]triazolo[1,5-a]pyridin-2-yl)cyclopropanecarboxamide] | 72.41 | 0.1 to 100 | 1 to 100 |
| O=C(Nc1nc2cccc(-c3ccc(OCc4ccccn4)cc3)n2n1)C1CC1 [Compound 37, N-(5-(4-(pyridin-2-ylmethoxy)phenyl)-[1,2,4]triazolo[1,5-a]pyridin-2-yl)cyclopropanecarboxamide] | 79.47 | 0.1 to 100 | 1 to 100 |
